From patent US10555923B2, “Method for treating paroxysmal nocturnal hemoglobinuria” (ENZYCHEM LIFESCIENCES CORPORATION, priority 2015, dated 2020)

What was measured:
C3 [1] = assay: C3 inhibition in HMC-1 cells (ELISA); type: cell-based, human; settings: PLAG 1, 10 and 100 μg/mL for 2 hours, activated 72 hours with 10% FBS
Description: In a separate experiment, human mast cells (HMC-1, 1×10^5 cell/ml) are treated with PLAG of various concentrations (1, 10 and 100 μg/mL) for 2 hours. The cells are activated for 72 hours with 10% FBS (Fetal bovine serum) containing IMDM. The decrease of C3 is confirmed by ELISA analysis of the expressed protein.

STAT6 [2] = molecular target: T1, STAT6 (Homo sapiens, UniProt P42226); assay: Dephosphorylation of STAT6 in IL-4 stimulated cell lysates (Western blot); type: cell-based; settings: U937, Jurkat and A549 cells; PLAG 0.01 to 10 μg/ml; 10 ng/ml IL-4; 15 min after stimulation
T1 construct: using anti-phosphorylated STAT6 in U937, A549, and Jurkat cell lysates treated with PLAG; endogenous in cells; host or cells: U937, A549, Jurkat
T1 sequence (P42226 1-847): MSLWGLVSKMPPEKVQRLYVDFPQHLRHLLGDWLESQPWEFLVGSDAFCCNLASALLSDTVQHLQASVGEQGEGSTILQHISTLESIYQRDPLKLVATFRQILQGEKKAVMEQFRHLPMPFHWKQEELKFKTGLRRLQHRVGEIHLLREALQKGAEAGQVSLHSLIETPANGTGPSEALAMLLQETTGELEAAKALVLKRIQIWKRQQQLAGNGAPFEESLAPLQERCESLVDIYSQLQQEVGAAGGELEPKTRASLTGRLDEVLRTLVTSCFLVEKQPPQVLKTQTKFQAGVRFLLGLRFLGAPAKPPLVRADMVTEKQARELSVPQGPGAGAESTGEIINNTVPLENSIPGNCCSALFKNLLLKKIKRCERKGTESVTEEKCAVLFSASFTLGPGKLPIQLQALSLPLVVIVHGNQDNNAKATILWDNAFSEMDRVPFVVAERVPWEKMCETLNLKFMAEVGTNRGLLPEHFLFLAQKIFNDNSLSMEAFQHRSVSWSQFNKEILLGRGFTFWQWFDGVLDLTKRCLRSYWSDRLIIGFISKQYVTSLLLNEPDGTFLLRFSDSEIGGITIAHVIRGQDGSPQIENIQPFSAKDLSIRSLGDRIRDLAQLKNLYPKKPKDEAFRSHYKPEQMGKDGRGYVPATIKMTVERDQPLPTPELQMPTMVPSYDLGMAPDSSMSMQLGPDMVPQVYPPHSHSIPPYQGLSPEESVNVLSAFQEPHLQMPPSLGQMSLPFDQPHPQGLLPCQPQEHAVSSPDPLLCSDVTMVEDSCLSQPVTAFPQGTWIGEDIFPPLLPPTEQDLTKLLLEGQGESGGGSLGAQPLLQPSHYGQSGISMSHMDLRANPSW
Description: Dephosphorylation of STAT6 is examined using anti-phosphorylated STAT6 in U937, A549, and Jurkat cell lysates treated with PLAG at a concentration from 0.01 to 10 μg/ml. Phosphorylation of STAT6 is induced by treatment with 10 ng/ml of IL-4. Dephosphorylation of STAT1 is examined in the U937 cell lysate treated with PLAG (0.01 to 10 μg/ml). Phosphorylation of STAT1 is induced by 10 ng of IFN-γ treatment. Dephosphorylation of STAT1 and STAT6 is examined at 15 min after stimulation with IFN-γ and IL-4 respectively, in the PLAG pretreated cells. […] The transcriptional activity of STAT6 is decreased by the dephosphorylation of STAT6. […] No effect of PLAG on STAT1 phosphorylation is observed.

STAT1 = assay: Reporter assay for STAT1 transcriptional activity in HepG2 cells; type: cell-based, human; settings: 10 ng IFN-γ, PLAG 0.01-10 μg/ml, 12 hour incubation
Description: (§1) By using STAT6 inhibitor (S6I), it is confirmed that the reduction of complement 3 in HepG2 cells (human hepatocyte cell line) is regulated by STAT6. […] It is also confirmed that PLAG has selective efficacy on STAT6 over STAT1. FIG. 1 presents graphs showing STAT1 and STAT6 transcriptional activity in the PLAG treated HepG2 cells. NC refers to the unstimulated control cell. For the STAT1 assay, gene transfected HepG2 (human hepatocyte cell line) is treated with 10 ng of IFN-γ and serially diluted PLAG is added (0.01 μg/ml, 0.1 μg/ml, 1 μg/ml, and 10 μg/ml as shown) to see its effect on gene expression in the stimulated cell. For the STAT6 assay, gene transfected HepG2 cells are treated with 10 ng of IL-4 and again serially diluted PLAG is added (0.01 μg/ml, 0.1 μg/ml, 1 μg/ml, and 10 μg/ml as shown) to see its effect on gene expression in the stimulated cell. The assay is carried out following a 12 hour incubation of treated cells.

[3] = Colony forming units (CFUs) in spleen assay in heavily irradiated mice; type: in vivo; settings: 50 mg/kg/d i.p. or p.o.
Description: In order to determine the in vivo effect of PLAG on the recovery of hematopoiesis, a CFUs assay is performed in heavily irradiated mice.

HepG2 cells = assay: WST-1 cell viability assay in HepG2 cells; type: cell-based; settings: PLAG 1 to 100 μg/ml
Description: (§2) The incubated HepG2 cell lines are treated with PLAG (1˜100 μg/ml), followed by IL-4 and TNF-α, reacted for 1 hour, incubated for 18 hours at 37° C. and the supernatant is isolated. Quantitation of the amount of C3 in the cellular culture medium (supernatant) from HepG2 cells is performed by ELISA using a commercially available monoclonal antibody (mAb, R&D Systems) and the manufacture's protocol; the results are presented in FIGS. 3A-3C. C3 is expressed spontaneously under in vitro culture conditions using 10% FCS added to HepG2 cells and incubated for 12 hr. The cells are treated with PLAG from 1 to 100 μg/ml (FIG. 3A, FIG. 3B) or 10 and 100 μg/ml of S6I (FIG. 3C), reacted with IL-4 and TNF-α for 1 hr and then incubated for 18 hr at 37° C. Cellular viability is confirmed using the WST-1 assay (FIG. 3A).

[4] = tested on: hematopoietic stem cells and megakaryocytes; settings: reported in WO 99/26640; cited from earlier work
C3 [5] = assay: C3 in culture supernatant of HepG2 cells (ELISA); type: cell-based, human; settings: PLAG 1 to 100 μg/ml or S6I 10 and 100 μg/ml, IL-4 and TNF-α 1 hr, incubated 18 hr
Description: as §2

C3 [6] = assay: C3 mRNA expression in HepG2 cell line (RT-PCR); type: cell-based, human
Description: A liver cell line, HepG2 (American Type Culture Collection, ATCC, Rockville, Md.), is incubated and maintained at 37° C., 5% CO2 humid atmosphere in DMEM medium. When HepG2 cells, which are known to produce complement in culture, are treated with PLAG, the activity of complement is reduced effectively, as confirmed by RT-PCR of mRNA. In the RT-PCR, 5×10^5 HepG2 cells/ml are distributed into 12 well plates and induced C3 for 12 hours with 10% FCS. Then PLAG is added and further cultured for 2 hours. Cells are harvested and mRNA is isolated and RT-PCR is carried out with specific primers for C3; GAPDH is used as an internal control.

complement 3 = assay: Complement 3 activation by chemotherapeutic agents in mouse model; type: in vivo; settings: mice; PLAG 50 mg/kg daily 3 weeks with Gemcitabine, Cyclosphosphamide or Tamoxifen
Description: The effect of PLAG for treatment of chemotherapy-induced thrombocytopenia (CIT) is evaluated in an animal model. Anti-cancer agents (Gemcitabine 50 mg/kg, Cyclosphosphamide 100 mg/kg, or Tamoxifen 50 mg/kg) are dosed daily for 3 weeks; PLAG is also administered at 50 mg/kg daily for 3 weeks.
It is believed that the leukopenia and thrombocytopenia of these agents and other chemotherapeutic agents may be due at least in part to a specific complement-mediated toxicity. This is seen in FIG. 5.

C3 [7] = assay: In vitro inhibition of C3 expression in HMC-1 cells (IL-4/TNF-α induced, RT-PCR); type: cell-based, human; settings: IL-4 (5 ng) and TNF-α (10 ng), PLAG 0.1 and 1 μg/mL
Description: A blood cell line, HMC-1 (human mast cell, American Type Culture Collection, ATCC, Rockville, Md.) is incubated and maintained at 37° C. under 5% CO2 humid conditions. The medium is IMDM (Life Technologies, Karlsruhe, Germany) containing 10% Fetal Calf Serum (FCS, HyClone, Logan, Utah), 2 mM […], 100 μg/ml penicillin, 100 μg/ml streptomycin (Life Technologies). The cultured HMC-1 cells (1×10^6 cell/ml) are pretreated with 0.1 and 1 μg/mL concentrations of PLAG, followed by treatment with IL-4 (5 ng) and/or TNF-α (10 ng) to induce cellular activities.
The expressed C3 and its mRNA level changes are observed by using RT-PCR (Reverse Transcriptase Polymerase Chain Reaction). The RT-PCR is carried out as follows: the total RNA is separated by the standard protocol and cDNA is synthesized using AccuScript High Fidelity 1st Strand cDNA Synthesis Kit (Stratagene). Two-step RT-PCR reaction is conducted using Oligo-dT primer and reverse transcriptase, pair of primers and Taq polymerase (Takara, Shiga, Japan). […] The product of PCR is separated using 1.5% agarose gel, dyed with ethidium bromide (EtBr), and visualized with Gel Doc 2000 UV trans-illuminator (Bio-Rad Laboratories, Hercules, Calif., USA), and the experimental data is analyzed using Quantity One software (Bio-Rad Laboratories).

STAT6 [8] = assay: Reporter (luciferase) assay for STAT6 transcriptional activity in HepG2 cells; type: cell-based, human; settings: 10 ng IL-4, PLAG 0.01-10 μg/ml, 12 hour incubation
Description: as §1

Row | SMILES | decrease of C3 (ELISA of expressed protein) (C3 [1]) | IL-4 treatment induced STAT6 phosphorylation (STAT6 [2]) | STAT1 transcriptional activity (expression) (STAT1) | number of splenic nodules, primitive progenitor cells and megakaryocytes [3] | cellular propagation and death (WST-1 viability) (HepG2 cells) | growth-stimulating activities of hematopoietic stem cells and megakaryocytes [4] | expression of C3 (amount in supernatant, ELISA) (C3 [5]) | inhibition of C3 expression (mRNA, RT-PCR) (C3 [6]; PLAG 1 μg/ml, 2 hours) | inhibition of C3 expression (mRNA, RT-PCR) (C3 [6]; PLAG 10 μg/ml, 2 hours) | blockage of chemotherapy-induced complement 3 activation (complement 3) | expression of C3 (C3 [7]) | STAT6 transcriptional activity (expression) (STAT6 [8]) | inhibition of C3 expression (mRNA, RT-PCR) (C3 [6]; S6I 10 and 100 μg/ml, compared with PLAG 1 and 10 μg/ml)
1 | CCCCC/C=C\C/C=C\CCCCCCCC(=O)OC(COC(C)=O)COC(=O)CCCCCCCCCCCCCCC (racemic) [PLAG, 1-palmitoyl-2-linoleoyl-3-acetylglycerol] | proportional to the concentration of PLAG | inhibited with increasing PLAG concentrations | no effect | marked increase | does not affect the cellular propagation and death | have growth-stimulating activities | decreased dose-dependently | somewhat | entirely | largely blocked | suppressed by PLAG on a concentration dependent basis | significant, dose-dependent effect | 
2 | NC(=O)c1cnc(NCCc2ccc(O)c(Cl)c2)nc1NCc1ccccc1 [S6I, reference compound] |  |  |  |  |  |  |  |  |  |  | suppresses expression of C3 |  | comparable
